Series [1] has as its system Micrococcus luteus ATCC 9341. As to the kind of experiment: agar-plate disc-diffusion test. The series is classed as cell-based. To be noted: suspended in water at 1 mg/ml; 7 mm disc; 24-48 hours at 25-37° C. (A growth-free zone around the sample is the usual read-out of agar diffusion tests.)
The subject of series [2] is Staphylococcus epidermidis EPI2. The series is classed as cell-based. The settings on record: agar dilution; 2, 5, 17, 22 median of three tests; paired values two experiments. For orientation: Agar dilution tests growth on a series of plates holding different concentrations.
The subject of series [3] is Staphylococcus aureus. In words: in vivo activity against experimental bacterial infection (ED50). The settings on record: mice; two doses subcutaneously; dose protecting fifty percent of test animals.
For series [4], the system named is Staphylococcus epidermidis EPI1. The series is classed as cell-based. The settings on record: agar dilution; 2, 5, 17, 22 median of three tests; paired values two experiments.
The subject of series [5] is Streptococcus pyogenes. In words: in vivo activity against experimental bacterial infection (ED50). To be noted: mice, dose protecting fifty percent of test animals.
Series [6] deals with Streptococcus Group 9960. The series is classed as cell-based, Streptococcus pneumoniae. To be noted: agar dilution; 2, 5, 17, 22 median of three tests; paired values two experiments.
For series [7], the system named is Bacillus subtilis ATCC 6633. In words: agar-plate disc-diffusion test. To be noted: 7 mm disc, 24-48 hours at 25-37° C.
Procedure: ^a Compounds were suspended in water at a concentration of 1 mg/ml; a
7 mm disc was dipped into the suspension and then placed on the agar
surface; incubation: 24-48 hours at 25-37° C.
^b Grown on minimal nutrient agar
Series [8] concerns Streptococcus pyogenes C203. The class given is cell-based. The settings on record: agar dilution; 2, 5, 17, 22 median of three tests; paired values two experiments.
In series [9] the test system is Staphylococcus aureus X400. The class given is cell-based. To be noted: methicillin-resistant strain; agar dilution; 2, 5, 17, 22 median of three tests; paired values two experiments.
In series [10] the test system is Streptococcus pneumoniae Park I. The series is classed as cell-based. The settings on record: agar dilution; 2, 5, 17, 22 median of three tests; paired values two experiments.
Series [11] concerns Staphylococcus aureus X1.1. The series is classed as cell-based. The settings on record: agar dilution; 2, 5, 17, 22 median of three tests; paired values two experiments.
In series [12] the test system is Staphylococcus aureus V41. The series is classed as cell-based. To be noted: penicillin-resistant strain; agar dilution; 2, 5, 17, 22 median of three tests; paired values two experiments.
Series [13] has as its system Staphylococcus aureus ATCC 6738P. In words: agar-plate disc-diffusion test. The series is classed as cell-based. To be noted: suspended in water at 1 mg/ml; 7 mm disc; 24-48 hours at 25-37° C.
Series [14] has as its system Streptococcus pneumoniae Group D X66. The series is classed as cell-based. To be noted: agar dilution; 2, 5, 17, 22 median of three tests; paired values two experiments.
The nature of series [15]: toxicity test (LD50). The settings on record: mouse, in vivo, iv, mice; administered intravenously.

Converted amounts (≈) assume the structure as drawn.

Usually LD50 stands for the dose at which mortality reaches 50%. A lower LD50 goes with greater toxicity.

`CCCCC=CCCCCCCCC(=O)N[C@@H](Cc1c[nH]c2ccccc12)C(=O)N[C@@H](CC(N)=O)C(=O)N[C@@H](CC(=O)O)C(=O)N[C@@H]1C(=O)NCC(=O)N[C@@H](CCCN)C(=O)N[C@@H](CC(=O)O)C(=O)N[C@H](C)C(=O)N[C@@H](CC(=O)O)C(=O)NCC(=O)N[C@H](CO)C(=O)N[C@@H]([C@H](C)CC(=O)O)C(=O)N[C@@H](CC(=O)c2ccccc2N)C(=O)O[C@@H]1C` [Compound 12]: in [1], the “Size of Zone of Inhibition (mm) Micrococcus luteus ATCC 9341” value is 20 mm. Moreover, the “MIC Staphylococcus epidermidis EPI2” value in series [2] stood at 2 µg/mL (≈ 1.19 µM). For the same molecule, in series [3], the “ED50 Staphylococcus aureus Subcutaneous” value came to 3.28 mg/kg × 2. Further, the “MIC Staphylococcus epidermidis EPI1” value in [4] amounted to 2 µg/mL (≈ 1.19 µM). The “ED50 Streptococcus pyogenes Oral” value in series [5] (two doses orally) was determined as 75 mg/kg × 2. In series [5] (two doses subcutaneously), the “ED50 Streptococcus pyogenes Subcutaneous” value was 0.134 mg/kg × 2. In addition, the “MIC Streptococcus pneumoniae Group 9960” value in series [6] was 1 µg/mL (≈ 0.597 µM). Moreover, the “Size of Zone of Inhibition (mm) B. subtilis ATCC 6633, grown on minimal nutrient agar” value in [7] (grown on minimal nutrient agar, 1 mg/ml) is given as 30 mm. Besides, the “Size of Zone of Inhibition (mm) Bacillus subtilis ATCC 6633” value in [7] (suspended in water at 1 mg/ml) is listed as 19 mm. Also, the “MIC Streptococcus pyogenes C203” value in [8] stood at 0.5 µg/mL (≈ 0.299 µM). Further, the “MIC Staphylococcus aureus X400” value in series [9] came to 2 µg/mL (≈ 1.19 µM). Also, the “MIC Streptococcus pneumoniae Park I” value in series [10] worked out at 0.5 µg/mL (≈ 0.299 µM). For the same molecule, the “MIC Staphylococcus aureus X1.1” value in [11] turned out to be 1 µg/mL (≈ 0.597 µM). In addition, the “MIC Staphylococcus aureus V41” value in [12] was found to be 1 µg/mL (≈ 0.597 µM). The “Size of Zone of Inhibition (mm) Staphylococcus aureus ATCC 6738P” value in series [13] is 22 mm. Besides, in series [14], the “MIC Streptococcus pneumoniae Group D X66” value amounted to 2 µg/mL (≈ 1.19 µM). Further, the LD50 in series [15] amounted to 450 mg/kg.

(Values after US4537717A.)
